Laboratory results taken from ChEMBL document CHEMBL1201862, “PubChem BioAssay data set” (2004).
Active and inactive are the calls of the source.

What was measured:
[1] = viability of uninfected HEp-2 cells – cell-based, HTS, cytotoxicity control for RSV inhibitor project, dose response (AID 2410); type: functional; settings: human respiratory syncytial virus
[2] = molecular target: T1, Short transient receptor potential channel 4 (Mus musculus, UniProt Q9QUQ5); assay: block of DAMGO-driven TRPC4 calcium entry – cell-based, HEK293 TRPC4/mu-opioid, Fluo-4 calcium, dose response (AID 434942); type: functional;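 also: potency of inhibitors blocking the TRPC4 calcium response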
T1 sequence (Q9QUQ5 whole entry): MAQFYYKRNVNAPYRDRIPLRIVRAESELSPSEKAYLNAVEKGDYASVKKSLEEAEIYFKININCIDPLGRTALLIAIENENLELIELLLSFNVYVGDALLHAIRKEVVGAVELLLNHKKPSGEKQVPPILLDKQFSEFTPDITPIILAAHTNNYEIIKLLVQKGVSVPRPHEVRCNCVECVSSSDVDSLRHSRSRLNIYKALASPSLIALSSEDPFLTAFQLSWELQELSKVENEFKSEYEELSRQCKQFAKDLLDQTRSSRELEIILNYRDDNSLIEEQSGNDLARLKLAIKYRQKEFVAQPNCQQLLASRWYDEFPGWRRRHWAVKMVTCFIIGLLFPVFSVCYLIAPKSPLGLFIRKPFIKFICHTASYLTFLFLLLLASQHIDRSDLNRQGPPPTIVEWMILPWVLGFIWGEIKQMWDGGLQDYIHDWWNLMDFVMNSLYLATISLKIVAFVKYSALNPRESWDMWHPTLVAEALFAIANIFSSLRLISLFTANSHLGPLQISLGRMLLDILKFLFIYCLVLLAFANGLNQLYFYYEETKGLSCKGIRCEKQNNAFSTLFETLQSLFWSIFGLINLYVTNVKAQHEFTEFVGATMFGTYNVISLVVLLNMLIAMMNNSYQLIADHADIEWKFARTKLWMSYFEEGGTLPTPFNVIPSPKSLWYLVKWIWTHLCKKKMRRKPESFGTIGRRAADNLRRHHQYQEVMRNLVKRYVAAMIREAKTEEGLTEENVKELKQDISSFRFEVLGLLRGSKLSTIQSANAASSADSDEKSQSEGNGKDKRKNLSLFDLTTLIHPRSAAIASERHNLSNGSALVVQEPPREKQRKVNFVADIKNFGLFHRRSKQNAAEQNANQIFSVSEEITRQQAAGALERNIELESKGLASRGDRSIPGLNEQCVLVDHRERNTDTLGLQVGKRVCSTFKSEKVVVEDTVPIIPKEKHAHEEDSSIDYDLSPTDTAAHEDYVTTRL

[3] = Trypanosoma cruzi growth suppression in host cells – NIH3T3 host cells, beta-gal luminescence, confirmation (AID 2044); type: functional, cell-based;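 also: intracellular parasites grown in NIH/3T3 mouse fibroblasts as host cells; luminescent beta-galactosidase reporter signal from transgenic T. cruzi replicating inside host cells; inhibitors lower the luminescence signal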
[4] = NIH3T3 cell viability loss – ATP luminescence, mouse fibroblasts, counter-screen, dose response (AID 2010); type: functional, cell-based;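 also: cells exposed to compound for about 90 hours before reading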
[5] = molecular target: T1, Short transient receptor potential channel 4; assay: calcium entry via TRPC4 opening agents – cell-based, HEK293 TRPC4/mu-opioid, Fluo-4 calcium, dose response (AID 434937); type: functional
cells [6] = type: functional, cell-based
cells [7] = type: functional, cell-based; remark: listed apart in the source
Leucine aminopeptidase = molecular target: T2, Leucine aminopeptidase (Plasmodium falciparum 3D7, UniProt Q8IL11); assay: P. falciparum M17LAP inhibitors, primary screen, biochemical, fluorogenic H-Leu-NHMec substrate, 1536-well (AID 1619); type: functional
T2 sequence (Q8IL11 whole entry): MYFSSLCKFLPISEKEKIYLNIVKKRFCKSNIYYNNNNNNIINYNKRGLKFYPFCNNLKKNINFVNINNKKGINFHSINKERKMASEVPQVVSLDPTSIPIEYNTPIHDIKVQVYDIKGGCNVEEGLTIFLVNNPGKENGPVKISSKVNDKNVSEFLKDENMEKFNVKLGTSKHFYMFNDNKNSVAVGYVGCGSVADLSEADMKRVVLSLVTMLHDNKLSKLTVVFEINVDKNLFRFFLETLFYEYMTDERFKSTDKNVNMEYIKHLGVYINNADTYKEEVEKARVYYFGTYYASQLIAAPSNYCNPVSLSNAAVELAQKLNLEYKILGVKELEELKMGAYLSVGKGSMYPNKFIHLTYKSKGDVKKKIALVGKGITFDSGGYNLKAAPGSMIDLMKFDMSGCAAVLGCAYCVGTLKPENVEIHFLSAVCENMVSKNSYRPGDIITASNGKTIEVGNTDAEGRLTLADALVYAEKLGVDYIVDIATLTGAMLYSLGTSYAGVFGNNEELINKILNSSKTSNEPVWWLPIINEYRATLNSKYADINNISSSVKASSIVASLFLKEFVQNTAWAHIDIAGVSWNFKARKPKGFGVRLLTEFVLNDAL

Aminopeptidase N = molecular target: T3, Aminopeptidase N (Plasmodium falciparum FcB1/Columbia, UniProt O96935); assay: malaria alanyl aminopeptidase activity blockers – biochemical, fluorogenic H-Leu-NHMec substrate, 1536-well (AID 1445); design: species or system Plasmodium falciparum 3D7, 3D7
T3 sequence (O96935 whole entry): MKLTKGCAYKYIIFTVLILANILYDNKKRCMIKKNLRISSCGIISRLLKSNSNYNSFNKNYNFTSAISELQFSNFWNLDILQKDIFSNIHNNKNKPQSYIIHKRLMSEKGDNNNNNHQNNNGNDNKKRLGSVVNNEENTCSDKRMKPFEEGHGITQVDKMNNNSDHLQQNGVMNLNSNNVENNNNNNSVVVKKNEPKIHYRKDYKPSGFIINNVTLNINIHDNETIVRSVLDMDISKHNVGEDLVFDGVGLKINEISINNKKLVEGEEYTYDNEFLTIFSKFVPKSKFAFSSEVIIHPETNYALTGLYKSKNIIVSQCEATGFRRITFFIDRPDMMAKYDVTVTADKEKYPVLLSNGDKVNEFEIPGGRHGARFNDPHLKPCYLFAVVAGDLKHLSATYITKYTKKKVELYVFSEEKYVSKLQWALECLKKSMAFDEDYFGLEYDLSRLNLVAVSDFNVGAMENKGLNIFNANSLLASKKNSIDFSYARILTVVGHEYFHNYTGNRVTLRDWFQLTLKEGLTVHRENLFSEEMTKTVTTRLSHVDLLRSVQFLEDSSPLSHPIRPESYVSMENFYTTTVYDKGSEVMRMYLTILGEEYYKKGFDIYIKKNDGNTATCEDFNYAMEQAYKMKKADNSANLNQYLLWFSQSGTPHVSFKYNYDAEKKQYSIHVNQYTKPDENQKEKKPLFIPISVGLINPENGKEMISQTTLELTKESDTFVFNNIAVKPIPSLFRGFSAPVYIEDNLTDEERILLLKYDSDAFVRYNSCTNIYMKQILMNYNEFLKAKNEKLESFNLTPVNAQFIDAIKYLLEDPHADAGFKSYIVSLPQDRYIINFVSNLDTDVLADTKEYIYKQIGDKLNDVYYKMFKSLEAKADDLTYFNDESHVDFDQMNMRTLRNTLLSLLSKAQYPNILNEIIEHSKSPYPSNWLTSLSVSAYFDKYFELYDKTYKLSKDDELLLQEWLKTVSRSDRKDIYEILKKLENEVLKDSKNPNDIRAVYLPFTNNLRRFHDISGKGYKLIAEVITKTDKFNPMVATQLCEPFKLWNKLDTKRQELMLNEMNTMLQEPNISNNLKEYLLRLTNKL

[8] = Luminescence Cell-Based Dose Confirmation HTS to Identify Inhibitors of Platelet Dense Granule Release. [Related pubchem assays: 1663 (Primary HTS), 1678 (Summary of Project)]; type: functional
Cytochrome P450 2C9 = Cytochrome P450 2C9 (Homo sapiens, UniProt P11712)
[9] = molecular target: Luciferin 4-monooxygenase (Photinus pyralis, UniProt P08659); assay: inhibition of purified Photinus pyralis luciferase – biochemical, luminescence, dose response (AID 1891)
Cytochrome P450 1A2 = molecular target: T4, Cytochrome P450 1A2 (Homo sapiens, UniProt P05177);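 also: PubChem cytochrome P450 panel assay, CYP1A2 panel member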
T4 sequence (P05177 whole entry): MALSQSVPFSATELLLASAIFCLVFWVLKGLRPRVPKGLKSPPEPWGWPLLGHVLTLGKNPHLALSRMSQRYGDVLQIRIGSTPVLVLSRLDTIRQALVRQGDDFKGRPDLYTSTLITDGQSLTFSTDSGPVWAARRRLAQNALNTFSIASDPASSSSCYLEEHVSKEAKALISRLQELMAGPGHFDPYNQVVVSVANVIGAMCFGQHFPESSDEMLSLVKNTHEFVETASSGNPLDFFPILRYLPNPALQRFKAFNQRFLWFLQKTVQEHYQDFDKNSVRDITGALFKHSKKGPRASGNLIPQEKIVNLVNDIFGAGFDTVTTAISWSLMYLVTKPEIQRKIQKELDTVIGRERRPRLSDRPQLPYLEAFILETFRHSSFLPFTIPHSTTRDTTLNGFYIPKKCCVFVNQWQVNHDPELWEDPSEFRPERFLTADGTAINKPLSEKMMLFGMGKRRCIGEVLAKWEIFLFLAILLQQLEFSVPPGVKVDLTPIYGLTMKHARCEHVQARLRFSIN

Cytochrome P450 2C19 = Cytochrome P450 2C19 (Homo sapiens, UniProt P33261); assay: Cytochrome panel assay with activity outcomes. Panel member name: p450-cyp2c19 Compounds with AC50 equal or less than 10 uM are considered active; type: functional
Cytochrome P450 2D6 = Cytochrome P450 2D6 (Homo sapiens, UniProt P10635);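 also: CYP2D6 member of a cytochrome P450 panel assay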
[10] = microbe, parasite or virus in culture; type: functional; settings: Mycobacterium tuberculosis
[11] = molecular target: Heat shock protein HSP 90-alpha (Homo sapiens, UniProt P07900); type: functional, organism-based
[12] = tested on: Streptococcus sp. 'group A'; assay: Streptococcus pyogenes SK(-)GAS viability under kanamycin – luminescence, BacTiterGlo, confirmation, counter-screen for streptokinase expression inhibitor project, dose response (AID 1900); type: functional, organism-based
Streptococcus = assay: GAS UMAA2166 growth inhibition – luminescence, BacTiterGlo, counter-screen for streptokinase expression inhibitor project, dose response (AID 1915); type: functional, organism-based;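 also: potency for reduction of bacterial viability or growth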
Cytochrome P450 3A4 = Cytochrome P450 3A4 (Homo sapiens, UniProt P08684);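 also: CYP3A4 tested as one member of a cytochrome P450 panel screen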
Chain of Cytochrome P450 3A4 (P08684 whole entry): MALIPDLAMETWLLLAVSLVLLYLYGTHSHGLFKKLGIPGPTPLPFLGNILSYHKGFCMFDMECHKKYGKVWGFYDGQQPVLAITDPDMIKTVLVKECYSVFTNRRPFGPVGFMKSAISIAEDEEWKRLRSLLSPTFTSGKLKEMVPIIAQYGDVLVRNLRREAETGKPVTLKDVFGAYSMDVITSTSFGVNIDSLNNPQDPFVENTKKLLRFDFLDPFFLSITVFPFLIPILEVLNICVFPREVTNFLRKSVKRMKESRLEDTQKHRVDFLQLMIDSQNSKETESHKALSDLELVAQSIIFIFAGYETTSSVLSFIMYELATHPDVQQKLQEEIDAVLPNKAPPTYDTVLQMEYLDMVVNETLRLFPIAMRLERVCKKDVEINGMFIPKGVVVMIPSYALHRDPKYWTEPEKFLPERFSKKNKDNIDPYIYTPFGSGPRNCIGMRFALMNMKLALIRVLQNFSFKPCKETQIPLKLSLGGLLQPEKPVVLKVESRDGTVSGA

Chain of Cytochrome P450 2C19 (P33261 whole entry): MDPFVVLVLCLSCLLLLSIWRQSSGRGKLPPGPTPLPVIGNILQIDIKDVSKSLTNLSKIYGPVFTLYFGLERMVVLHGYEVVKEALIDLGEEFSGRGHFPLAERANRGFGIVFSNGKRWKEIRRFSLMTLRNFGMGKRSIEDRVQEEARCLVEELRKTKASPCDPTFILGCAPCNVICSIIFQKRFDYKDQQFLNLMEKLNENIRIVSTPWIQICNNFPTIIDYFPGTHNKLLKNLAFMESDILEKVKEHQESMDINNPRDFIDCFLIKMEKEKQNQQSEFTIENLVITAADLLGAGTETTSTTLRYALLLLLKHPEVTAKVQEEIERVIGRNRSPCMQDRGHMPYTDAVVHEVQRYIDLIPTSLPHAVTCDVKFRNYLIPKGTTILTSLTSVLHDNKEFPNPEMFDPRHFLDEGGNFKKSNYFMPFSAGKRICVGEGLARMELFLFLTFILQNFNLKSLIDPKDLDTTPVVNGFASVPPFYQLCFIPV
Chain of Luciferin 4-monooxygenase (P08659 whole entry): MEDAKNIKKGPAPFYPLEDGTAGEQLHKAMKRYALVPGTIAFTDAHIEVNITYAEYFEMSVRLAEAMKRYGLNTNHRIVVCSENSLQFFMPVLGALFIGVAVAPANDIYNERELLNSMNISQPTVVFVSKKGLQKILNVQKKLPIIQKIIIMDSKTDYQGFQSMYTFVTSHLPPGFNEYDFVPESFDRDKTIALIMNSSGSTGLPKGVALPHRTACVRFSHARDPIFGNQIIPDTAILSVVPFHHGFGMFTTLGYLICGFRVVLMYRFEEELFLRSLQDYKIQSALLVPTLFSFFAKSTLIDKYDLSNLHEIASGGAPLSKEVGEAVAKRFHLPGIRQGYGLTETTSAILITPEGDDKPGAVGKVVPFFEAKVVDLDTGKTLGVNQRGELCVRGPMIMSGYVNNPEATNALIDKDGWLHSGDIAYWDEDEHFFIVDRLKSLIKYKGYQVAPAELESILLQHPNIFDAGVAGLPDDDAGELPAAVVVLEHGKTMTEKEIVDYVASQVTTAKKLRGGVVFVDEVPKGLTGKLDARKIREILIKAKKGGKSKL
Chain of Cytochrome P450 2D6 (P10635 whole entry): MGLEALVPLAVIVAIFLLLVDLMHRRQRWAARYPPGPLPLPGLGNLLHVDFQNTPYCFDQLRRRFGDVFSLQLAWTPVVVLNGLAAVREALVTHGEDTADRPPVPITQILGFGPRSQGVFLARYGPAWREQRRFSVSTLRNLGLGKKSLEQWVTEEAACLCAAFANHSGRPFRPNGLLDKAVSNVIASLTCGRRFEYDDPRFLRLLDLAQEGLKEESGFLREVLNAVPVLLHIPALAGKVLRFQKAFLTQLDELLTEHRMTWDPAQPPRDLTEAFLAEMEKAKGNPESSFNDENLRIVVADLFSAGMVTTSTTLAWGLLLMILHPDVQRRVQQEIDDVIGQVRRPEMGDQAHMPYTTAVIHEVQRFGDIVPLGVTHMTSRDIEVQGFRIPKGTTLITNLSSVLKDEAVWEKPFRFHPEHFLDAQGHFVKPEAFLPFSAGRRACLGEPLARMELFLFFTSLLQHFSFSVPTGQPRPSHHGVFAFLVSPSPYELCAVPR
Chain of Cytochrome P450 2C9 (P11712 whole entry): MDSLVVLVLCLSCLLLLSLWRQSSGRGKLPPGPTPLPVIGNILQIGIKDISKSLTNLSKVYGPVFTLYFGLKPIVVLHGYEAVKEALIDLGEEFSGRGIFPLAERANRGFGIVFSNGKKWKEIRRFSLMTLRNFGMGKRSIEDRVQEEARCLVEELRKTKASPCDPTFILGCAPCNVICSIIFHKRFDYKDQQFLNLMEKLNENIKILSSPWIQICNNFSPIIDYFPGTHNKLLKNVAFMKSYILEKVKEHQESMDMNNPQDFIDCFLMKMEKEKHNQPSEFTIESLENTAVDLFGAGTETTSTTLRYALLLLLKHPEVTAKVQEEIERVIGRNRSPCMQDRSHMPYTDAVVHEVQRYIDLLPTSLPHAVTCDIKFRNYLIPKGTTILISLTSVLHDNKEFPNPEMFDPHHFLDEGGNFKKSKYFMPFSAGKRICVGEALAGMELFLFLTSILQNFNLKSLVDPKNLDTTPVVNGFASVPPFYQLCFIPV

Cc1nc(Cl)c(Cl)n1CCOc1ccccc1
CC50 [1]: 20.9 µM (active) | EC50 [2]: 5.31 µM (active)

Cc1ccc(C(CNS(=O)(=O)c2ccc([N+](=O)[O-])cc2)N2CCN(C)CC2)cc1 (configuration not stated)
EC50 [3]: 1.65 µM (active) | EC50 [4]: > 60 µM (not active) | EC50 [2]: 0.0093 µM (active)

CCOc1ccc(CN2CCNC(=O)C2CC(=O)NCCc2ccccn2)cc1 (configuration not stated)
EC50 [5]: 6.68 µM (active)

CCOC(=O)c1c(S(=O)(=O)N2CCC(C)CC2)c(C)n(C)c1C
EC50 (cells [6]): > 350 µM (not active) | EC50 (cells [7]): > 350 µM (not active)

CC1CCCN(CCCN2C(=O)C3C(C(=O)Nc4ccc(Cl)cc4)C4C=CC3(O4)C2C(=O)NC2CCCCC2)C1 (configuration not stated)
EC50 [2]: 0.335 µM (active)

Cc1cc(OCCn2ccnc2)cc(C)c1Cl
EC50 [5]: 3.76 µM (active)

O=C(O)c1ccc(/C=C/c2ccc3cccc(O)c3n2)cc1
IC50 (Leucine aminopeptidase): 55.5 µM (active) | IC50 (Aminopeptidase N): 13 µM (active)

O=C(CN1C(=O)C2C3CC(C(Br)C3Br)C2C1=O)N1CCOCC1 (configuration not stated)
IC50 (Leucine aminopeptidase): 47.5 µM (active)

O=C(NCCCN1CCN(c2cccc(Cl)c2)CC1)C1CCC(=O)N1Cc1ccccc1Cl (configuration not stated)
EC50 [8]: > 112 µM (not active) | AC50 (Cytochrome P450 2C9): 15.8 µM (inconclusive) | EC50 [9]: > 112 µM (not active) | AC50 (Cytochrome P450 1A2): 0.00631 µM (inconclusive) | EC50 [2]: 2.99 µM (active) | AC50 (Cytochrome P450 2C19; read-out: AC50): 10 µM (inconclusive)

Cc1cc(C)c(C)c(OCCCN(C)C)c1
EC50 [5]: 0.168 µM (active)

COc1ccc(Nc2nnc(SCC(=O)N3CCCC3)s2)cc1
IC50 (Leucine aminopeptidase): 10.1 µM (active)

Cc1ccc(CNc2ccc3c(c2)nc(C)n3C)cc1
EC50 (cells [6]): 34.6 µM (active) | EC50 (cells [7]): > 350 µM (not active)

CC(C)(C)[C@H]1C=C(C(=O)NCc2ccccc2)O[C@@H](OCc2ccc(CO)cc2)C1
EC50 [5]: 9.44 µM (active)

c1ccc(Cn2nnnc2C(c2cccnc2)N2CCN(C3CCCCC3)CC2)cc1 (configuration not stated)
EC50 [5]: 1.68 µM (active)

O=C(O)C1CC=CCC1C(=O)Nc1cccc(F)c1 (configuration not stated)
IC50 (Leucine aminopeptidase): 14.6 µM (active)

O=C(NCCCN1CCN(c2ccccc2F)CC1)Nc1ccccc1[N+](=O)[O-]
EC50 (cells [6]): > 350 µM (not active) | EC50 (cells [7]): > 350 µM (not active)

COc1ccc(SC[C@H](Cc2ccccc2)N2CCN(C)CCC2=O)cc1
EC50 [2]: 1.33 µM (active)

CCCCOC(=O)NS(=O)(=O)c1sc(CC(C)C)cc1-c1ccc(Cn2c(CC)nc3c(C)cc(C)nc32)cc1
AC50 (Cytochrome P450 2D6): 15.8 µM (inconclusive) | CC50 [10]: 20.3 µM (active) | AC50 (Cytochrome P450 2C19; read-out: AC50): 15.8 µM (inconclusive)

Oc1ccc(/C=N/NC(=S)NC2CC3CCC2C3)cc1 (configuration not stated)
EC50 (cells [6]): > 350 µM (not active) | EC50 (cells [7]): > 350 µM (not active)

O=C(O)c1ccc(N/N=C/c2ccc(-c3cccc(Cl)c3)o2)cc1
AC50 [11]: 8 µM (active) | EC50 [12]: 3.86 µM (active) | EC50 [2]: 4.73 µM (active) | EC50 (Streptococcus): 10.7 µM (active)

CC1=NNC(=O)C1CCC(=O)N/N=C/c1ccc(Cl)cc1 (configuration not stated)
IC50 (Leucine aminopeptidase): 52.6 µM (active)

O=c1cc(CSc2ccccc2)[nH]c(=S)[nH]1
IC50 (Leucine aminopeptidase): 12.5 µM (active) | AC50 (Cytochrome P450 3A4): 28.2 µM (inconclusive) | AC50 (Cytochrome P450 2C19): inconclusive
